According to publication PMC6244536, “In Vivo Stabilized SB3, an Attractive GRPR Antagonist, for Pre- and Intra-Operative Imaging for Prostate Cancer” (Molecular Imaging and Biology, 2018):
Where two headings read alike, the source gives them in different places.

Experiments:
[1] = pre-clinical studies of PA combined with radiotracers; cited from earlier work
Source text: For application in patients, NEP inhibitors that are already approved for clinical use such as Sacubitril and Racecadotril might be applied.

human GRPR = human GRPR (Homo sapiens, UniProt P30550); assay: biochemical
Method: (§1) All statistical evaluations were performed with GraphPad Prism software (version 5.01). The IC50 value was calculated using a log (inhibitor) vs response model. To compare in vivo stability −/+ PA, radioactivity uptake in the tumor −/+ PA and radioactivity uptake in the tumor without and with an excess of unlabeled peptide an unpaired t test was used. P values < 0.05 were considered statistically significant. Tumor to organ uptake ratios were calculated per animal and expressed as mean and standard deviation per group.

[2] = test system: PC-3 tumor xenografts (GRPR-expressing); conditions: 1 h p.i.; for tumor ROI signal intensity on SPECT: 25 MBq/200 pmol i.v.
Method: For SPECT/MRI, PC-3-xenografted mice were intravenously injected with 25 MBq/200 pmol [^111In]SB3, co-injected with either 300 μg/100 μl PA in 0.5 % ethanol or 100 μl saline solution. Subsequently, imaging was performed 1, 4, and 24 h p.i. of the radiotracer, while animals were anesthetized using isoflurane/O2, body temperature was maintained using warm air flow, and respiratory rate was monitored. Whole-body SPECT images were acquired using the novel and state-of-the-art four-head multipinhole system (NanoScan SPECT/MRI, Mediso Medical Imaging) in 30 min (28 projections, 29 s/projection, and 7-cm axial field of view). Images were reconstructed using OSEM with six iterations and four subsets on a 120 × 120 matrix with 0.25 × 0.25 × 0.25-mm isotropic voxels. MR-based attenuation correction was applied to all images. T2 MR images were acquired using a spin echo sequence (TR/TE = 4500/52 ms) with a 35-mm-diameter solenoid coil. Other scan parameters were field of view 70 mm, matrix 256 × 128, and slice thickness 1 mm with 0.1-mm spacing between slices. An ROI of the tumor was drawn by an experienced technician on the T2-weighted MR image to measure the intensity in the SPECT image.

[3] = healthy mice, blood 5 min p.i., radio-HPLC, mean ± SD; for intact radiotracer, % of remaining circulating activity in blood: 200 pmol/25 MBq i.v.; for intact radiotracer in blood: 2000 pmol/25 MBq i.v.
Method: To determine the stability of [^111In]SB3 −/+ PA in vivo, healthy mice (n = 3 per group) were intravenously injected with 200 pmol/25 MBq or 2000 pmol/25 MBq [^111In]SB3 (volume 100 μl), co-injected with either 300 μg/100 μl PA (Peptides International Inc.) in 0.5 % ethanol or 100 μl saline solution. Five minutes after injection of [^111In]SB3 −/+ PA, blood (0.5–1 ml) was collected by cardiac puncture, while animals were under isoflurane/O2 anesthesia, and transferred to blood-collection tubes containing 90 USP units of lithium heparin (spray coated), HPLC grade ethanol was added in a 1:1 (v/v) ratio, and the tubes were placed on ice. Blood samples were centrifuged 5 min at 1250g, and supernatant was collected. Next, the collected supernatant was centrifuged again for 5 min at 12,500g. The secondary supernatant was collected and diluted with MilliQ down to < 25 % ethanol before injection on HPLC. The samples were analyzed by HPLC (Alliance, Waters) including a Symmetry C18 column (5 μm × 4.6 mm × 250 mm). Elution was performed in a 1-ml/min flow, completed in 30 min, with the gradient 0–5 min 100 % A, 5–5.01 min 40 % A 60 % B, 5.01–20 min 20 % A 80 % B, 20–20.01 min 100 % B, 20.01–25 min 100 % B, and 25.01–30 min 100 % A, where A was 0.1 % TFA in H2O and B was methanol.

[4] = Indium-111 labeled; cited from earlier work
Source text: Preclinical as well as clinical PET imaging studies using [^68Ga]SB3 have been performed with great success. […] To increase the in vivo stability of radiopeptides, multiple solutions are available, including structural modifications of a peptide or the novel approach of inhibition of enzymes responsible for enzymatic degradation. Since structural modifications are time consuming, and ...

[5] = test system: PC-3 tumor xenografts (GRPR-expressing); assay: in vivo; conditions: mouse
Method: (§2) Healthy or xenografted Balb c nu/nu male mice (Janvier) were used in this study. To obtain xenografted mice, animals were injected subcutaneously in the right shoulder with PC-3, 3 × 10^6 cells in Matrigel (total volume 150 μl, solution 66 % RPMI, 33 % Matrigel) per animal. Prior to tumor cell inoculation, the PC-3 cells were cultured in RPMI medium supplemented with 10 % fetal bovine serum, 5000 IU/ml penicillin, and 5000 μg/ml streptomycin at 37 °C in a humidified atmosphere containing 5 % CO2. PC295 is an androgen-dependent, patient-derived cell line with high GRPR expression. Xenografts were generated by subcutaneous implantation of the PC295 human prostate tumor as previously described and were stored at − 80 °C until further use. All culture supplies were purchased at Gibco.
(§3) Tumor-bearing mice received an intravenous injection of 200 pmol/2.5 MBq [^111In]SB3, co-injected with either 300 μg/100 μl PA in 0.5 % ethanol or 100 μl saline solution (n = 4 animals per group for each time point). […] To determine specificity of tumor and organ uptake, blocking experiments were performed; an additional group of animals (n = 3) was pre-injected with an excess (20 nmol) of unlabeled SB3 followed by injection of the radiotracer −/+ PA. At three different time points p.i. (1, 4, and 24 h), animals were euthanized and blood, organs, and tumors were collected, weighed, and measured in a γ-counter (1480 WIZARD automatic γ-counter, PerkinElmer). For γ-counter measurements, an isotope specific energy window, a counting time of 60 s, and a counting error ≤ 5 % were used. Results were expressed as the percentage of the injected dose per gram tissue (% ID/g tissue). Animals that had ≥ 7 % ID in the tail were excluded.
as §1

in vivo = conditions: male, Balb c nu/nu, mouse, iv, total radioactivity
Method: as §2, §3, §1

[6] = co-injected with 300 μg PA, n = 3

Chain of human GRPR (P30550 whole entry): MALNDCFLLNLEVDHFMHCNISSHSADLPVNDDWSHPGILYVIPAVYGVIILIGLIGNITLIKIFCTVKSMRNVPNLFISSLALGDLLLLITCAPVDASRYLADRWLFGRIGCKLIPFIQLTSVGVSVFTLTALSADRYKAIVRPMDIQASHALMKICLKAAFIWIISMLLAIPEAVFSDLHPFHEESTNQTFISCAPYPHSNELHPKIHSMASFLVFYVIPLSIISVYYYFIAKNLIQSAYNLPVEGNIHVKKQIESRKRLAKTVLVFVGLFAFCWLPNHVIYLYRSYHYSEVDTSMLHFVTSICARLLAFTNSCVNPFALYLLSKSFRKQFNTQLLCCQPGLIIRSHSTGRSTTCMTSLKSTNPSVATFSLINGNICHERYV

In the case of `CC(C)C[C@H](NP(=O)(O)O[C@@H]1O[C@@H](C)[C@H](O)[C@@H](O)[C@H]1O)C(=O)N[C@@H](Cc1c[nH]c2ccccc12)C(=O)O` [PA, phosphoramidon], the adverse events [1] is given as “have not indicated any adverse events”.
For `CCNC(=O)[C@H](CC(C)C)NC(=O)[C@H](Cc1c[nH]cn1)NC(=O)CNC(=O)[C@@H](NC(=O)[C@H](C)NC(=O)[C@H](Cc1c[nH]c2ccccc12)NC(=O)[C@H](CCC(N)=O)NC(=O)[C@@H](Cc1ccccc1)NC(=O)COCC(=O)Nc1ccc(CNC(=O)CN2CCN(CC(=O)O)CCN(CC(=O)O)CCN(CC(=O)O)CC2)cc1)C(C)C` [SB3, Sarabesin 3], the IC50 (human GRPR) was 3.5 nM.
For `CCNC(=O)[C@H](CC(C)C)NC(=O)[C@H](Cc1c[nH]cn1)NC(=O)CNC(=O)[C@@H](NC(=O)[C@H](C)NC(=O)[C@H](Cc1c[nH]c2ccccc12)NC(=O)[C@H](CCC(N)=O)NC(=O)[C@@H](Cc1ccccc1)NC(=O)COCC(=O)Nc1ccc(CNC(=O)CN2CCN(CC(=O)O)CCN(CC(=O)O)CCN(CC(=O)O)CC2)cc1)C(C)C` [[^111In]SB3, metal not drawn], the “tumor ROI signal intensity on SPECT” value ([2]; with 300 μg PA) was 2434 kBq/ml, the “tumor ROI signal intensity on SPECT” value ([2]; without PA) was 1424 kBq/ml and the “increase in tumor signal intensity with PA vs without PA” value ([2]; ROI analysis, 25 MBq/200 pmol) was 70%. The “intact radiotracer, % of remaining circulating activity in blood” value [3, 6] was 86.7 ± 1.5%, the “intact radiotracer, % of remaining circulating activity in blood” value ([3]; without PA, n = 3) was 37.3 ± 2.5% and the “intact radiotracer in blood” value [3, 6] was 87.9 ± 1.1%. For the same molecule, the “intact radiotracer in blood” value ([3]; without PA, one animal excluded) was 42.0 ± 0.2%, the in vivo stability [4] was “poor in vivo stability” and the “uptake in the pancreas and the tumor with an excess of unlabeled SB3 (blocking)” value [5] was “significantly decreased”. It also gave a tissue uptake at 1 h (in vivo; 200 pmol, pancreatic uptake) of 4.1 ± 2.3 %ID/g, a tissue uptake at 1 h (in vivo; 200 pmol, renal uptake) of 3.9 ± 1.4 %ID/g and a tissue to tissue ratio at 1 h (in vivo; 200 pmol, tumor to kidney ratio) of 2.8 ± 1. For the same molecule, the tissue to tissue ratio at 1 h (in vivo; 200 pmol, tumor to pancreas radioactivity ratio) was 3.4 ± 2.5, the tissue uptake at 1 h (in vivo; 200 pmol, tumor uptake) was 10.2 ± 1.5 %ID/g and the tissue uptake at 4 h (in vivo; 200 pmol, tumor uptake) was 8.3 ± 1.1 %ID/g. It also gave a tissue uptake at 24 h (in vivo; 200 pmol, tumor uptake) of 3.1 ± 1.9 %ID/g, a tissue uptake at 1 h (in vivo; pancreatic uptake) of 10.1 ± 4.3 %ID/g and a tissue uptake at 1 h (in vivo; renal uptake) of 4.5 ± 1.4 %ID/g. For the same molecule, the tissue to tissue ratio at 1 h (in vivo; tumor to kidney ratio) was 4.8 ± 2.2, the tissue to tissue ratio at 1 h (in vivo; tumor to pancreas radioactivity ratio) was 2.2 ± 0.8 and the tissue uptake at 1 h (in vivo; tumor uptake) was 19.7 ± 3.5 %ID/g. The tissue uptake at 4 h (in vivo; tumor uptake) was 17.6 ± 5.1 %ID/g and the tissue uptake at 24 h (in vivo; tumor uptake) was 6.5 ± 3.3 %ID/g.
